The values that follow come from patent US4547354A (priority 1983, dated 1985).

Molecules are shown by their SMILES. Read-outs that look alike come from different tables or passages of the source.

For this series the following is noted: 95° C., 4 hours.

In the case of `OO` [H2 O2, hydrogen peroxide], the “% Hydrogen Peroxide Recovery” value reads like this: (Example 1 of Table II: chlorobenzene 40.0 g, no acetone/methanol) 101%; (Example 2 of Table II: chlorobenzene 40.0 g, with acetone and methanol) 67%; (Example A: sulfuric acid, no chlorobenzene, no acetone/methanol) 107%; (Example B: no chlorobenzene, with acetone and methanol) 3%. The “Hydrogen Peroxide (mmoles) Recovered” value by setting is: (Example 1 of Table II: chlorobenzene 40.0 g, no acetone/methanol, 93.6 mmoles in) 94.1 mmol; (Example 2 of Table II: chlorobenzene 40.0 g, with acetone and methanol, 104.2 mmoles in) 69.4 mmol; (Example A: sulfuric acid, no chlorobenzene, no acetone/methanol, 104.0 mmoles in) 111.7 mmol; (Example B: no chlorobenzene, with acetone and methanol, 104.8 mmoles in) 3.2 mmol.
